The record followed here is US20040097576A1, “Use of tryptophan derivatives for the specific cytostatic treatment of serotonin-producing tumors” (priority 2001, published 2004).

Data set [1] concerns serotonin-producing cells NG108. In words: Toxicity of 7-HTP on serotonin-producing cells NG108 (FIG. 2). The format is cell-based. The source says:
(§1) FIG. 2. […] In contrast, the growth of COS7-cells that produce no serotonin is not affected by 7-HTP.

Data set [2] concerns COS7-cells. Kind of data set: Growth of COS7-cells that produce no serotonin (FIG. 2). The class given is cell-based.
Text: as §1

Data set [3] deals with serotonin-producing mastocytoma cells P815. Kind of data set: Toxicity of 7-HTP on mastocytoma cells P815 (FIG. 3). The format is cell-based.
For data set [4], the system named is serotonin-producing human carcinoid cells BON. In words: Toxicity of 7-HTP on human carcinoid cells BON (FIG. 4). The format is cell-based.
Data set [5] concerns tryptophan-hydroxylase (TPH) and aromatic-amino acid-decarboxylase (AAAD). Kind of data set: Intracellular enzymatic metabolisation by TPH and AAAD. The format is in vitro ADME. Particulars: 7-HTP to 5,7-DHT, 6-HTP to 5,6-DHT. The source says: The invention is put into practice according to the claims. […] These two enzymes, TPH and AAAD, are expressed extraordinarily strong in serotonin-producing tumor cells. Due to the unequally higher TPH-expression in these tumor cells in comparison with normal serotonin-producing tissues, only marginally toxic effects occur in these tissues.
FIG. 1. Reaction scheme of enzymatic metabolisation of 7-hydroxytryptophan (7-HTP) to 5,7-dihydroxytryptamine (5,7-DHT). The rate-limiting first step is mediated by the enzyme tryptophan-hydroxylase (TPH) and is followed by a rapid decarboxylation by the aromatic-amino acid-decarboxylase (AAAD).

With `N[C@@H](Cc1c[nH]c2c(O)cccc12)C(=O)O` [7-HTP, 7-hydroxytryptophan], in data set [1] (NG108 cells, FIG. 2), the “toxicity on the serotonin-producing cells NG108” value is given as “Specific toxicity”. Further, the “growth of COS7-cells” value in data set [2] is recorded as “not affected”. In data set [3], the “toxicity on the serotonin-producing mastocytoma cells P815” value was “rapidly and specifically killed”. Further, the “toxicity on the serotonin-producing human carcinoid cells BON” value in data set [4] was “rapidly and specifically killed”. In addition, the “intracellular metabolisation to dihydroxytryptamine toxin” value in data set [5] is listed as “metabolised intracellularly”.
In the case of `N[C@@H](Cc1ccc(Cl)cc1)C(=O)O` [PCPA, p-chlorophenylalanin, reference compound], the “protection of 7-HTP-sensitive NG108-cells against 7-HTP toxicity” value in data set [1] (NG108 cells treated with 7-HTP plus TPH-inhibitor, no 5,7-DHT synthesised intracellularly) is given as “can be protected”.
With `N[C@@H](Cc1c[nH]c2cc(O)ccc12)C(=O)O` [6-HTP, 6-hydroxytryptophan], in data set [5], the “intracellular metabolisation to dihydroxytryptamine toxin” value was “metabolised intracellularly”.
